This is an account of results in the Deep4Chem optical property database.

The nature of the series: photoluminescence quantum yield (fraction); solvent given as SMILES.

Structures are written as SMILES.

As to `CCC1=C(C)C2=C(C)c3c(I)c(I)c(I)n3[B-](F)(F)[N+]2=C1C`, the photoluminescence quantum yield is, setting by setting: (in C1CCCCC1) 0.1; (in CC(C)=O) 0.046; (in CCO) 0.061; (in CCOC(C)=O) 0.072; (in CO) 0.051; (in OCC(F)(F)F) 0.04.
As for `COc1cccc2cc(-c3cc4cccc(OC)c4oc3=O)oc12`, under “in CS(C)=O”, the photoluminescence quantum yield stood at 0.11.
Where the note is “in ClCCl”, `N#Cc1ccc(-c2nc(-c3ccccc3)c3ccccn23)cc1` returned a photoluminescence quantum yield of 0.21.
With `COc1cc2c(cc1-c1ccccc1)Cc1c3c(c4c(c1-2)-c1cc(OC)c(-c2ccccc2)cc1C4)C(=O)N(CCC(C)C)C3=O`, the photoluminescence quantum yield runs as follows: (in C1CCOC1) 0.53; (in CC#N) 0.46; (in CC(C)=O) 0.38; (in CCOC(C)=O) 0.61; (in CS(C)=O) 0.47; (in Cc1ccccc1) 0.48. The photoluminescence quantum yield by setting is: (in ClC(Cl)Cl) 0.64; (in ClCCl) 0.63.
As for `Cc1ccc(-c2cccc3ncc(-c4ccccc4)n23)cc1`, the photoluminescence quantum yield (in ClCCl) is 0.28.
Turning to `Cc1cc2c(o1)c(C)cc1ccc(=O)oc12`, the photoluminescence quantum yield is, setting by setting: (in C1CCCCC1) 0.0001; (in C1COCCO1) 0.0001; (in CC#N) 0.001; (in CCO) 0.007; (in OCC(F)(F)F) 0.03.
In the case of `Cc1cccc(-c2cccc(C)c2)c1`, the photoluminescence quantum yield (in C1CCCCC1) amounted to 0.28.
As to `COc1cc2c(cc1C=C(C#N)C#N)c1ccccc1n2C`, the photoluminescence quantum yield reads like this: (in C1CCOC1) 0.002; (in CC#N) 0.003; (in CCOC(C)=O) 0.004; (in CN(C)C=O) 0.005; (in CO) 0.003; (in CS(C)=O) 0.006. Further, the photoluminescence quantum yield reads like this: (in Cc1ccccc1) 0.003; (in ClC(Cl)Cl) 0.004; (in ClCCl) 0.004.
Consider `CCn1c2ccc(/C=C/c3ccc4c(c3)c3cc(-c5nc6ccccc6s5)ccc3n4CC)cc2c2cc(-c3nc4ccccc4s3)ccc21`, for which the photoluminescence quantum yield reads like this: (in C1CCOC1) 0.65; (in CC#N) 0.26; (in CCOC(C)=O) 0.58; (in CN(C)C=O) 0.32; (in ClCCl) 0.5.
Molecule `COc1ccc(-c2csc(/C(C#N)=C/c3ccc([N+](=O)[O-])cc3)n2)cc1` came in with a photoluminescence quantum yield (in CC#N) of 0.
On to `O=C1C2=C3c4ccsc4C=CN3C(=O)C2=C2c3ccsc3C=CN12`, for which the photoluminescence quantum yield turned out to be 0.73 (in CN(C)C=O) and 0.8 (in ClC(Cl)Cl).
Under “in C1CCOC1”, `F[B-]1(F)n2c(c(-c3ccccc3)c(-c3ccccc3)c2-c2ccccc2)C=C2C(c3ccccc3)=C(c3ccccc3)C(c3ccccc3)=[N+]21` had a photoluminescence quantum yield of 0.96.
In the case of `CCCCCCN(CCCCCC)c1ccc(C#Cc2ccc(-c3ccc(C#Cc4ccc(N(CCCCCC)CCCCCC)cc4)cc3)cc2)cc1`, the photoluminescence quantum yield (in Cc1ccccc1) is 0.87.
Molecule `COC(=O)c1cc(=O)n(C)c2cc(-c3cc4c5c(c3)CCCN5CCC4)sc12` displayed a photoluminescence quantum yield (in CC#N) of 0.02; a photoluminescence quantum yield (in CCO) of 0.09; a photoluminescence quantum yield (in CN(C)C=O) of 0.1; a photoluminescence quantum yield (in CO) of 0.3; a photoluminescence quantum yield (in CS(C)=O) of 0.17; a photoluminescence quantum yield (in ClC(Cl)Cl) of 0.48. Under “in ClCCl”, the photoluminescence quantum yield worked out at 0.25.
Consider `CCCn1c(=O)c(/C=C/c2nc3ccc(C)cc3n(CCC)c2=O)nc2ccc(C)cc21`, for which the photoluminescence quantum yield by setting is: (in C1COCCO1) 0.2; (in CC#N) 0.15; (in ClCCl) 0.21.
As to `Cc1cc(C)c(C2=C3C=C(/C=C/C(=O)OCc4ccccc4)C=[N+]3[B-](F)(F)n3cc(/C=C/C(=O)OCc4ccccc4)cc32)c(C)c1`, the photoluminescence quantum yield (in ClCCl) turned out to be 0.35.
The molecule `Cc1ccc(C)c(C2=C3C=CC(=[N+](C)C)C=C3[Si](C)(C)c3cc(N(C)C)ccc32)c1` had a photoluminescence quantum yield (in O) of 0.32.
In turn, `COc1ccc(-n2nc(C#N)c(NC3CCCCC3)n2)cc1` displayed a photoluminescence quantum yield (in CC#N) of 0.956.
For the molecule `O=c1[nH]c2[n+](c3ccccc13)[B-](F)(F)Oc1ccccc1-2`, the photoluminescence quantum yield worked out at 0.201 (in CC#N) and 0.24 (in Cc1ccccc1).
`COc1cccc(-c2nc(-c3ccccc3)c(-c3ccccc3)[nH]2)c1` gave a photoluminescence quantum yield (in CO) of 0.28.
Molecule `COc1ccc(-c2ccc(-c3ccccc3)cc2)cc1` registered a photoluminescence quantum yield (in C1CCCCC1) of 0.7.
Where the note is “in ClC(Cl)Cl”, `CCCCC1(c2ccccc2)Nc2c(-c3ccc(OC)cc3)ccc(-c3ccc(OC)cc3)c2N=C1c1ccccc1` (stereo not given) registered a photoluminescence quantum yield of 0.45.
As for `CCCCCCN1C(=O)c2cccc3c(-c4ccc([N+](=O)[O-])s4)ccc(c23)C1=O`, where the note is “in ClC(Cl)Cl”, the photoluminescence quantum yield was 0.
The molecule `c1ccc(-c2nc(-c3ccccc3)nc(-c3ccc(-n4c5ccc(-n6c7ccccc7c7ccccc76)cc5c5cc(-n6c7ccccc7c7ccccc76)ccc54)cc3)n2)cc1` gave a photoluminescence quantum yield (in Cc1ccccc1) of 0.57.
With `N#C/C(=C\c1ccc(C#N)cc1)c1nc(-c2ccccc2)c(-c2ccccc2)s1`, the photoluminescence quantum yield (in CC#N) is 0.101.
Consider `F[B-]1(F)Oc2c(-c3cccc4c3O[B-](F)(F)[n+]3c(-c5ccccc5)c(-c5ccccc5)n(-c5ccc(C(F)(F)F)cc5)c3-4)cccc2-c2n(-c3ccc(C(F)(F)F)cc3)c(-c3ccccc3)c(-c3ccccc3)[n+]21`, for which, for the setting “in C1CCOC1”, the photoluminescence quantum yield was 0.68.
In turn, `c1ccc(-c2nc(-c3ccc(N(c4ccccc4)c4ccccc4)cc3)n3ccccc23)cc1` came in with a photoluminescence quantum yield (in ClCCl) of 0.127.
On to `C1=CC2CC1C1C2[C@@]2(c3ccccc3)N=NC1(c1ccccc1)[C@@H]1C[C@H]12` (stereo not given in full), for which the photoluminescence quantum yield (in CC#N) came to 0.038.
For the molecule `CC(C)[Si](C#Cc1c2ccccc2c(C#Cc2c3ccccc3c(C#Cc3c4ccccc4c(C#Cc4c5ccccc5c(C#Cc5c6ccccc6c(C#C[Si](C(C)C)(C(C)C)C(C)C)c6ccccc56)c5ccccc45)c4ccccc34)c3ccccc23)c2ccccc12)(C(C)C)C(C)C`, for the setting “in Cc1ccccc1”, the photoluminescence quantum yield is 0.018.
`CN(C)c1ccc(C2=CC3=C(c4ccc(C=O)cc4)[C@H]4c5ccccc5[C@]3(S2)c2ccccc24)cc1` yielded a photoluminescence quantum yield (in ClCCl) of 0.46.
With `CCCCc1ccc(-n2c3c(c4c2c2c(n4-c4ccc(CCCC)cc4)-c4cc(F)ccc4NB2c2ccccc2)B(c2ccccc2)Nc2ccc(F)cc2-3)cc1`, the photoluminescence quantum yield (in Cc1ccccc1) was 0.64.
Turning to `F[B-]1(F)n2c(Oc3ccccc3)c(Cl)c(Br)c2C(Oc2ccccc2)=C2C(Br)=C(Cl)C(Oc3ccccc3)=[N+]21`, the photoluminescence quantum yield (in ClCCl) was determined as 0.68.
As for `CCCCN1C(=O)c2cccc3c(N(C)C)ccc(c23)C1=O`, under “in Cc1ccccc1”, the photoluminescence quantum yield was found to be 0.95.
As to `c1ccc(N(c2ccccc2)c2cc3c4c(c2)N(c2ccccc2)c2cc5c(cc2B4c2ccccc2N3c2ccccc2)B2c3ccccc3N(c3ccccc3)c3cc(N(c4ccccc4)c4ccccc4)cc(c32)N5c2ccccc2)cc1`, the photoluminescence quantum yield worked out at 0.74 (in Cc1ccccc1) and 0.82 (in Cc1ccccc1-c1cccc(Oc2cc3c4c(c2)Oc2cc(-c5ccccc5C)ccc2B4c2ccc(-c4ccccc4C)cc2O3)c1).
Consider `COc1ccc(-c2cnc(-c3cccnc3)o2)cc1OC`, for which the photoluminescence quantum yield (in ClCCl) is 0.98.
In the case of `CN(C)c1ccc(C(=O)Nc2ccc(F)cc2)cc1`, the photoluminescence quantum yield by setting is: (in C1CCCCC1) 0.0011; (in C1CCOC1) 0.0053; (in CC#N) 0.0104; (in CCOCC) 0.0034.
For `CN(C)c1ccc(-c2ccc(-c3cc(N4CCCCC4)c(C#N)c4c3-c3ccccc3CC4)cc2)cc1`, the photoluminescence quantum yield (in C1CCOC1) turned out to be 0.68.
`CCN1C(=CC2=C([O-])C(=Cc3[se]c4ccccc4[n+]3CC)C2=O)[Se]c2ccccc21` gave a photoluminescence quantum yield (in CC(C)O) of 0.14.
Molecule `Cc1ccc(C2=C3C=C(I)C=[N+]3[B-](F)(F)n3c2cc(I)c3I)cc1` returned a photoluminescence quantum yield (in C1CCCCC1) of 0.06; a photoluminescence quantum yield (in CC#N) of 0.02; a photoluminescence quantum yield (in CCO) of 0.026; a photoluminescence quantum yield (in CCOC(C)=O) of 0.034; a photoluminescence quantum yield (in CO) of 0.025; a photoluminescence quantum yield (in OCC(F)(F)F) of 0.022.
`COc1ccc(-c2c3ccccc3c(-c3ccc(OC)cc3)c3cc4sc(C)cc4cc23)cc1` showed a photoluminescence quantum yield (in ClCCl) of 0.52.
For the molecule `CCCCCCc1cc2/c(=C(\C#N)C(=O)OC)s/c(=c3/s/c(=C(/C#N)C(=O)OC)c4cc(CCCCCC)sc34)c2s1`, the photoluminescence quantum yield (in Cc1ccccc1) stood at 0.086.
Consider `CC1=CC(C)=[N+]2C1=Cc1c3ccccc3c(C#Cc3ccccc3)n1[B-]2(F)F`, for which the photoluminescence quantum yield was 0.89 (in CCCCCC); 0.88 (in CCCCCCCCO); 0.84 (in CCOC(C)=O); 0.6 (in CN(C)C=O); 0.89 (in ClCCl).
`COc1ccc(/C=C/c2cc(/C=C/c3ccc(OC)cc3)nc(/C=C/c3ccc4cc(OC)ccc4c3)n2)cc1` registered a photoluminescence quantum yield (in ClCCl) of 0.11.
Regarding `COc1ccc(O)c(-c2nc(C)c3n2CCCC3)c1`, the photoluminescence quantum yield (in ClCCl) amounted to 0.11.
As for `CCCC1=C(CCC)c2cccc3c2c(cc2nc4ccccc4nc23)O1`, the photoluminescence quantum yield (in ClCCl) was 0.52.
Consider `COc1ccc(-c2c3ccc([nH]3)c3nc(c(-c4ccc([N+](=O)[O-])cc4)c4ccc([nH]4)c4ccc([nH]4)c(-c4ccc(OC)cc4)c4ccc2o4)C=C3)cc1`, for which the photoluminescence quantum yield reads like this: (in C1CCOC1) 0.013; (in Cc1ccccc1) 0.075; (in c1ccccc1) 0.08.
Consider `Brc1ccc(-c2nc(-c3ccc(C#Cc4ccc(-n5c6ccccc6c6ccccc65)cc4)cc3)nc(-c3ccc(C#Cc4ccc(-n5c6ccccc6c6ccccc65)cc4)cc3)n2)cc1`, for which the photoluminescence quantum yield reads like this: (in C1CCOC1) 0.68; (in CC#N) 0.02; (in CCCCCC) 0.9; (in Cc1ccccc1) 0.96; (in ClCCl) 0.65.
For the molecule `CCCCC(CC)Cn1c2cc(-c3ccc(N(c4ccccc4)c4ccccc4)cc3)c(C#N)cc2c2cc(C#N)c(-c3ccc(N(c4ccccc4)c4ccccc4)cc3)cc21` (stereo not given), where the note is “in ClCCl”, the photoluminescence quantum yield is 0.8.
